In US12180255B2, “Compositions and methods for derepressing RE1 silencing transcription factor target genes” (Alcamena Stem Cell Therapeutics, LLC, priority 2019, dated 2024):

Tests used:
[1] = Mechanical pain threshold after SNI, morphine analgesia; type: in vivo; conditions: single S.C. injection, n=4
Method: FIG. 23. […] B. Analgesic effect of single S.C. injection of morphine on MT post-injury (SNI+MOR, n=4). Mean±SEM; F=4.62, *p<0.05 by one-way ANOVA before and after treatment; mean difference and 95% CI=−7.3, −14.5 to −0.135, p<0.05 by Bonferroni's Multiple Comparison test. 20 mg/Kg of MOR (n=4; F=19.03, **p<0.001 by one-way ANOVA).

[2] = Conditioned Place Preference after morphine in SNI mice; type: in vivo; conditions: 4 doses
Text: FIG. 24. Conditioned Place Preference (CPP) after conditioning with saline (control) and 4 doses of morphine (MOR) in SNI mice.

[3] = molecular target: T1, His-CTDSP1 (Homo sapiens, UniProt Q9GZU7); test: Binding affinity of RPP for CTDSP1, Monolith (NanoTemper); conditions: His-CTDSP1 40 nM labelled with RED-tris NTA dye 20 nM
T1 construct: made in house; host or cells: E. coli 10G (Lucigen), pBAD-HisA
T1 sequence (Q9GZU7 with tags, fused parts or gaps): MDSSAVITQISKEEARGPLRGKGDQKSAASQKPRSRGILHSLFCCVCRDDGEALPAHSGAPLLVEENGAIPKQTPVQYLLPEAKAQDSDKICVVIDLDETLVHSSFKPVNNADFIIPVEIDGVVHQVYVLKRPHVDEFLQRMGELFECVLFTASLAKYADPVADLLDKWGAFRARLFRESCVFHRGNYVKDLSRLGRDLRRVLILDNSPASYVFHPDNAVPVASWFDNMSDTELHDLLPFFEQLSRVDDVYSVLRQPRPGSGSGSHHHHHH
Method: FIG. 2. Binding affinity of the REST phosphomimetic peptide (RPP) for CTDSP1 was measured using the Monolith (NanoTemper). […] Binding was assessed by fluorescently labelling the His tag on CTDSP1 (40 nM) with RED-tris NTA dye (20 nM) and measuring the change in fluorescents when RPP (up to […]) is bound.
Expression constructs for His-CTDSPL (Table 2; SEQ ID NO: 162) and GST-RPP (Table 4; SEQ ID NO: 164) were constructed and purified as described in Example 2. The His tag on CTDSP1 (40 nM) was labelled with RED-tris NTA dye (20 nM), with a […] dye to CTDSP1 ratio, and unbound dye was removed by gravity-flow size exclusion. Binding affinity of the linear GST-RPP (Table 4; SEQ ID NO: 165) to His-CTDSP1 (Table 2; SEQ ID NO:163) was determined using Monolith (NanoTemper), following manufacturer recommendations. Results of the binding assay are presented in FIG. 2: The RPP (Table 4; SEQ ID NO: 165) was assessed for binding to His-CTDSP1 at several concentrations ranging from low pM up to 0.5 μM.

[4] = tested on: NBFL cells; test: KV4.3 mRNA in NBFL cells transfected with plasmid expressing RPP; type: cell-based
Method: FIG. 8. mRNA levels of KV4.3 in NBFL cells 48 h after CTDSP1 inhibition. Cells were transfected with a plasmid expressing RPP (SEQ ID NO: 1) with GFP (+) or a control peptide with GFP (−). 24 hours after transfection, cells were sorted based on fluorescence intensity. Error bars represent standard deviation, n=2.
Transient Transfections and Cell Culture. NBFL cells were grown as previously described^120. 0.5 M NFBL cells were seeded on a 35 mm dish, incubated at 37° C. overnight, and transfected with 2 μg of REST (SEQ. ID NO: 1)-IRES-GFP cDNA^2 using lipofectamine2000 (Life Technologies), following manufacturer recommendations. After a 48 hour incubation period, cell were sorted by fluorescence activated cell sorting (FACS),
mRNA extraction and quantification. mRNA was extracted, as described in Example 10, from GFP+ and − cells; mRNA levels of KV4.3 were determined using real-time RT-PCR^116. Gene expression was normalized using β-actin (ACTB) as an internal housekeeping control. The β-actin primers used are the same as Example 10. The KV4.3 primers were: forward: […] (SEQ ID NO: 336) and reverse: […] (SEQ ID NO: 337).

Compound: CN1CC[C@]23c4c5ccc(O)c4O[C@H]2[C@@H](O)C=C[C@H]3[C@H]1C5 [morphine]
- mechanical pain threshold (MT), mean difference before and after treatment [1]: −7.3
- Conditioned Place Preference (CPP) [2]: induced CPP in a dose-dependent manner

Compound: SEQ ID NO: 165: RPP-GST fusion protein, MCTEDLEPPEPPLPKENC linked to GST (Table 4)
- Kd [3]: ~130 pM

Compound: TEDLEPPEPPLPKEN [SEQ ID NO: 1, REST phosphomimetic peptide (RPP)]
- increase in KV4.3 mRNA ([4]; NBFL cells transfected with RPP): 2 fold
- Increase, KV4.3 mRNA ([4]; NBFL, 2 μg (transfected), 48 h): 3x
